Source: ChEMBL document CHEMBL1201862, “PubChem BioAssay data set” (2004)
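Cells were grown in 96-well plates and exposed to each compound for 48 hours at five concentrations; endpoints were interpolated linearly between bracketing concentrations, or set to the highest concentration if not reached. GI50: concentration for 50% inhibition of growth.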 Activity calls are given as the source filed them. No stated cut-off is given here; in the data, active = GI50 up to about 1.1 µM and inactive = higher.

Legend:
Test in all cases: inhibition of tumour cell growth, NCI panel, 48 h
CCRF-CEM = system: CCRF-CEM
SF-295 = system: SF-295
NCI-H460 = system: NCI-H460
DMS-273 = system: DMS-273
DLD-1 = system: DLD-1
RXF 393 = system: RXF 393
KM12 = system: KM12
HL-60 = system: HL-60
SNB-78 = system: SNB-78
NCI/ADR-RES = system: NCI/ADR-RES
SK-MEL-2 = system: SK-MEL-2
HT-29 = system: HT-29
UACC-257 = system: UACC-257
COLO 205 = system: COLO 205
A549 = system: A549
SK-OV-3 = system: SK-OV-3
NCI-H522 = system: NCI-H522
NCI-H226 = system: NCI-H226
CAKI-1 = system: CAKI-1
ACHN = system: ACHN

For `COc1ccc(C2CC(c3sc(Nc4ccc(C)cc4)nc3C)=NN2)cc1` (stereo unspecified), the GI50 (CCRF-CEM) was 11.1 µM (inactive), the GI50 (SF-295) was 15 µM (inactive) and the GI50 (NCI-H460) was 14.9 µM (inactive). The GI50 (DMS-273) was 18.8 µM (inactive), the GI50 (DLD-1) was 14 µM (inactive) and the GI50 (RXF 393) was 13.2 µM (inactive). The GI50 (KM12) was 15.2 µM (inactive), the GI50 (HL-60) was 7.64 µM (inactive) and the GI50 (SNB-78) was 22.1 µM (inactive). For the same molecule, the GI50 (NCI/ADR-RES) was 17.4 µM (inactive), the GI50 (SK-MEL-2) was 15.8 µM (inactive) and the GI50 (HT-29) was 11.8 µM (inactive). For the same molecule, the GI50 (UACC-257) was 15.8 µM (inactive), the GI50 (COLO 205) was 13.7 µM (inactive) and the GI50 (A549) was 15.6 µM (inactive). For the same molecule, the GI50 (SK-OV-3) was 24.4 µM (inactive), the GI50 (NCI-H522) was 15.3 µM (inactive) and the GI50 (NCI-H226) was 16.6 µM (inactive). For the same molecule, the GI50 (CAKI-1) was 18 µM (inactive).
In the case of `O=NN(CCCl)C(=O)N[C@H]1CC[C@H](C(=O)O)CC1`, the GI50 (CCRF-CEM) is reported as 36.3 µM (inactive), the GI50 (SF-295) is reported as 34.8 µM (inactive) and the GI50 (NCI-H460) is reported as 44.6 µM (inactive). For the same molecule, the GI50 (DMS-273) was > 100 µM (inactive), the GI50 (DLD-1) was > 100 µM (inactive) and the GI50 (RXF 393) was > 100 µM (inactive). The GI50 (KM12) was > 100 µM (inactive), the GI50 (SNB-78) was > 100 µM (inactive) and the GI50 (NCI/ADR-RES) was > 100 µM (inactive). For the same molecule, the GI50 (SK-MEL-2) was > 100 µM (inactive), the GI50 (HT-29) was > 100 µM (inactive) and the GI50 (UACC-257) was > 100 µM (inactive). For the same molecule, the GI50 (COLO 205) was > 100 µM (inactive), the GI50 (A549) was > 100 µM (inactive) and the GI50 (SK-OV-3) was > 100 µM (inactive). For the same molecule, the GI50 (NCI-H522) was 38.6 µM (inactive), the GI50 (NCI-H226) was > 100 µM (inactive) and the GI50 (CAKI-1) was > 100 µM (inactive).
In the case of `COc1cccc(CC(C)N)c1` (stereo unspecified), the GI50 (CCRF-CEM) is reported as > 100 µM (inactive), the GI50 (SF-295) is reported as > 100 µM (inactive) and the GI50 (NCI-H460) is reported as > 100 µM (inactive). The GI50 (DMS-273) was > 100 µM (inactive), the GI50 (DLD-1) was > 100 µM (inactive) and the GI50 (RXF 393) was > 100 µM (inactive). The GI50 (KM12) was > 100 µM (inactive), the GI50 (HL-60) was > 100 µM (inactive) and the GI50 (SNB-78) was > 100 µM (inactive). For the same molecule, the GI50 (ACHN) was > 100 µM (inactive), the GI50 (SK-MEL-2) was > 100 µM (inactive) and the GI50 (HT-29) was > 100 µM (inactive). The GI50 (UACC-257) was > 100 µM (inactive), the GI50 (COLO 205) was > 100 µM (inactive) and the GI50 (A549) was > 100 µM (inactive). The GI50 (SK-OV-3) was > 100 µM (inactive), the GI50 (NCI-H522) was > 100 µM (inactive) and the GI50 (NCI-H226) was > 100 µM (inactive). For the same molecule, the GI50 (CAKI-1) was > 100 µM (inactive).
With `C=C1CC(OC)(C(O)C(=O)N[C@H]2OCO[C@H]3C2O[C@H](C[C@@H](COC)OC)C(C)(C)C3OC)O[C@H](C)[C@@H]1C` (stereo partly specified) the GI50 (CCRF-CEM) was < 0.00482 µM (active), the GI50 (SF-295) was < 0.00482 µM (active) and the GI50 (NCI-H460) was < 0.00482 µM (active). For the same molecule, the GI50 (DMS-273) was < 0.00482 µM (active), the GI50 (DLD-1) was < 0.00482 µM (active) and the GI50 (RXF 393) was < 0.00482 µM (active). The GI50 (KM12) was < 0.00482 µM (active), the GI50 (HL-60) was < 0.00482 µM (active) and the GI50 (SNB-78) was < 0.00482 µM (active). For the same molecule, the GI50 (NCI/ADR-RES) was < 0.00482 µM (active), the GI50 (HT-29) was < 0.00482 µM (active) and the GI50 (UACC-257) was < 0.00482 µM (active). For the same molecule, the GI50 (COLO 205) was < 0.00482 µM (active), the GI50 (A549) was < 0.00482 µM (active) and the GI50 (NCI-H522) was < 0.00482 µM (active). The GI50 (NCI-H226) was < 0.00482 µM (active) and the GI50 (CAKI-1) was < 0.00482 µM (active).
With `C=C1C(=O)C[C@@]23CCC[C@@]12CC(OCOC)C3` (stereo partly specified) the GI50 (CCRF-CEM) was 1.62 µM (inactive), the GI50 (SF-295) was 5.3 µM (inactive) and the GI50 (NCI-H460) was 2.74 µM (inactive). The GI50 (DMS-273) was 2.4 µM (inactive), the GI50 (DLD-1) was 1.84 µM (inactive) and the GI50 (RXF 393) was 0.637 µM (active). The GI50 (KM12) was 3.08 µM (inactive), the GI50 (HL-60) was 2.05 µM (inactive) and the GI50 (SNB-78) was 4.8 µM (inactive). The GI50 (NCI/ADR-RES) was 2.11 µM (inactive), the GI50 (SK-MEL-2) was 4.16 µM (inactive) and the GI50 (HT-29) was 1.99 µM (inactive). The GI50 (UACC-257) was 2.5 µM (inactive), the GI50 (COLO 205) was 3.8 µM (inactive) and the GI50 (A549) was 13.5 µM (inactive). For the same molecule, the GI50 (SK-OV-3) was 6.67 µM (inactive), the GI50 (NCI-H522) was 0.387 µM (active) and the GI50 (NCI-H226) was 2 µM (inactive). The GI50 (CAKI-1) was 2.3 µM (inactive).
In the case of `NC(=O)c1ncn2c1NC(=O)CC2`, the GI50 (CCRF-CEM) is reported as > 100 µM (inactive), the GI50 (SF-295) is reported as > 100 µM (inactive) and the GI50 (NCI-H460) is reported as > 100 µM (inactive). For the same molecule, the GI50 (DMS-273) was > 100 µM (inactive), the GI50 (DLD-1) was > 100 µM (inactive) and the GI50 (RXF 393) was > 100 µM (inactive). The GI50 (KM12) was > 100 µM (inactive), the GI50 (HL-60) was > 100 µM (inactive) and the GI50 (SNB-78) was > 45.3 µM (inactive). The GI50 (NCI/ADR-RES) was > 100 µM (inactive), the GI50 (SK-MEL-2) was > 100 µM (inactive) and the GI50 (HT-29) was > 100 µM (inactive). For the same molecule, the GI50 (UACC-257) was > 100 µM (inactive), the GI50 (COLO 205) was > 100 µM (inactive) and the GI50 (A549) was > 100 µM (inactive). For the same molecule, the GI50 (SK-OV-3) was > 100 µM (inactive), the GI50 (NCI-H522) was > 100 µM (inactive) and the GI50 (NCI-H226) was > 100 µM (inactive). For the same molecule, the GI50 (CAKI-1) was > 100 µM (inactive).
